In US20230129745A1, “COMPOUNDS, COMPOSITIONS, AND METHODS TO TREAT METABOLIC DISEASE” (Board of Supervisors of Louisiana State University and …, priority 2020, published 2023):

Columns and labels:
[1] = test system: 3T3-L1 adipocytes; settings: published data; cited from earlier work
[2] = target: T1, PPARγ (Homo sapiens, UniProt P37231); settings: Choi et al. 2011; cited from earlier work
T1 construct: NIH-3T3 cells stably transfected with full-length PPARγ (A); expressed in transfected cells
T1 sequence (P37231 1-505): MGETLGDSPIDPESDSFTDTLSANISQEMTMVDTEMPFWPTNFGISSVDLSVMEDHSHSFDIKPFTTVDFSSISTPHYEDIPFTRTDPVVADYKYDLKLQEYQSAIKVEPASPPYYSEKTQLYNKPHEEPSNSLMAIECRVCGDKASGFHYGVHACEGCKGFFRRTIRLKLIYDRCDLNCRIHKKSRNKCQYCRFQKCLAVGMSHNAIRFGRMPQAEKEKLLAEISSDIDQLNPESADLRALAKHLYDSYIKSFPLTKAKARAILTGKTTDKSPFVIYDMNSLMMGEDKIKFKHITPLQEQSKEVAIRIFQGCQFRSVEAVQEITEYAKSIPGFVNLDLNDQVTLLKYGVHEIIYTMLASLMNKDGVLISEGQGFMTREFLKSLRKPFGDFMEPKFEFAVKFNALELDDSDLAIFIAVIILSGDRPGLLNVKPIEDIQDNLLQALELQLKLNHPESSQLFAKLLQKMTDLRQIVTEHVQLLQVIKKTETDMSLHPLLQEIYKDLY

[3] = test system: 3T3-L1 cells; assay: Lipid accumulation (Oil Red O) in differentiating 3T3-L1 cells; format: cell-based, murine; settings: for dose dependence of lipid accumulation activity / lipid accumulation (Oil Red O staining): 2.5, 10, and 25 μM; for lipid accumulation (Oil Red O staining): relative to DMSO; for adipogenesis (Oil Red O and AdipoQ, Fabp4, Pparγ expression): 2.5, 10, or 25 μM, half-strength MDI, FIG. 27
Description: Cells were then either fixed and stained with Oil Red O (4 days post-differentiation) (panel A), or harvested (3 days post differentiation) for RNA isolation and gene expression analysis of adiponectin (AdipoQ), fatty acid binding protein 4 (Fabp4), or Ppary (panels B-D). All treatments compared to their respective DMSO controls. The Effects of SCO and ROSI were analyzed by t-test, while the effects of individual test compounds were analyzed by one-way ANOVA. *[…], **P<0.01, ***P<0.001, ****P<0.0001 vs DMSO controls.
Cell Culture and Treatments. 3T3-L1 preadipocytes (murine) were cultured as previously described,^3 and induced to differentiate two days after reaching confluence. For experiments using mature adipocytes, cells were induced with a standard methylxanthine-dexamethasone-insulin (MDI) cocktail, which contains 0.5 mM isobutylmethylxanthine (IBMX), 1 μM dexamethasone (DEX), and 1.72 μM insulin in high-glucose Dulbecco's Modified Eagle Medium (DMEM) supplemented with 10% fetal bovine serum (FBS). IBMX, DEX, insulin, and DMEM were obtained from Sigma-Aldrich (St. Louis, Mo.), and FBS from Hyclone (GE Healthcare Life Sciences, Logan, Utah). For differentiation experiments, cells were induced with half-strength MDI cocktail […]. In both cases, cells were fed with high-glucose DMEM+10% FBS with 0.43 μM insulin three days following MDI induction. Test compounds were dissolved in dimethylsulfoxide (DMSO) as 1000× stocks. For differentiation experiments, cells were treated with the compounds (or DMSO vehicle as a control) at the time of induction and at the first feeding there after (3 days post-MDI). For lipolysis experiments on mature adipocytes, cells were fed with high-glucose DMEM+10% FBS 6 days after MDI and treated with test compounds or DMSO vehicle for three days. On the third day cells were also treated overnight with 0.75 nM tumor necrosis factor alpha (TNFα) (Life Technologies, Carlsbad, Calif.) or its vehicle [0.1% bovine serum albumin (BSA) in phosphate buffered saline (PBS)]. The following morning, the culture medium was replaced with lipolysis incubation medium (low-glucose DMEM+2% BSA) and 0.75 nM TNFα(or vehicle). After 4 hours, conditioned medium and cell lysates were collected.
Lipid Accumulation Assay. Five days after MDI induction, cell monolayers were fixed in 10% neutral buffered formalin (ThermoFisher, Waltham, Mass.) and stained with the neutral lipid stain, Oil Red O (ORO). Plates were scanned to generate images of staining. The ORO was then eluted in isopropyl alcohol, and absorbance of eluates was measured at 520 nm for quantitation.

[4] = test system: 3T3-L1 adipocytes; assay: TNFα-induced lipolysis (glycerol release) in 3T3-L1 adipocytes; format: cell-based, murine; settings: 2.5, 10, or 25 μM, 3-day pretreatment; 0.75 nM TNFα
Description: Fully differentiated 3T3-L1 adipocytes pretreated for three days with 50 μg/ml SCO or varying doses of test compounds (2.5, 10, or 25 μM), then overnight with 0.75 nM TFNα (or vehicle). After 4 hours, the conditioned medium was collected and assayed for glycerol. Data was expressed as fold-change vs TNFα-only treatment. Data from no-TNFα controls and each test compound were analyzed by one-way ANOVA. **P<0.01, ****P<0.0001 vs TNFα-only condition.
Cell Culture and Treatments. 3T3-L1 preadipocytes (murine) were cultured as previously described,^3 and induced to differentiate two days after reaching confluence. For experiments using mature adipocytes, cells were induced with a standard methylxanthine-dexamethasone-insulin (MDI) cocktail, which contains 0.5 mM isobutylmethylxanthine (IBMX), 1 μM dexamethasone (DEX), and 1.72 μM insulin in high-glucose Dulbecco's Modified Eagle Medium (DMEM) supplemented with 10% fetal bovine serum (FBS). IBMX, DEX, insulin, and DMEM were obtained from Sigma-Aldrich (St. Louis, Mo.), and FBS from Hyclone (GE Healthcare Life Sciences, Logan, Utah). […]
FABP4 secretion and lipolysis assays. […] Conditioned media samples were collected after four hours and analyzed for FAPB4 content by immunoblotting. Lipolysis was also assessed by measuring glycerol concentrations in the samples, using free glycerol reagent from Sigma-Aldrich.

[5] = LC-MS of serum from mice fed HFD containing 1% Artemisia scoparia extract; format: in vivo; settings: archived serum, SCO feeding study in high fat-fed mice, after 4-hour fast
Description: Serum samples of control or SCO-treated mice were analyzed directly without enzyme hydrolysis after protein precipitation (top 2 panels) or after glucuronidase enzyme digestion followed by solvent partitioning (lower 2 panels). Chromatograms were created using selected ion monitoring of m/z 315.159-315.161 specific to capillartemisins. In addition to specific mass, the identity of capillartemisin A was confirmed using our in-house library of spectral data that was confirmed using NMR spectroscopy.
To conduct in vivo assessments of SP's bioavailability or pharmacokinetics, we sent six-year-old archived serum samples from our last SCO feeding study in high fat-fed mice for analysis. These samples were collected at the time of sacrifice after a 4-hour fast, in conditions that were not designed for detection of SCO compounds in the circulation. […] However, capillartemisin A was detected (FIG. 12).

[6] = target: T2, caspase 1 (Mus musculus, UniProt P29452); settings: literature; cited from earlier work
T2 sequence (P29452 119-402): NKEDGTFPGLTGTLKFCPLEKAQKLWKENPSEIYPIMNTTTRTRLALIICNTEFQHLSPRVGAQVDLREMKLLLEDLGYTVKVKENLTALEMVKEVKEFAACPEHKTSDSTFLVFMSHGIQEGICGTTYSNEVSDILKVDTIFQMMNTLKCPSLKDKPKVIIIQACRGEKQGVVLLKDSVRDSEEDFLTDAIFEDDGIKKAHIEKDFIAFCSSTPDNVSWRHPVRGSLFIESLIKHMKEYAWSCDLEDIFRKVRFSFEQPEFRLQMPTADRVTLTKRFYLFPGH

[7] = 14 days of treatment, db/db mice; cited from earlier work

detection in serum (LC-MS) [5]	Compound	adipogenesis / adipocyte differentiation [1]	dose dependence of lipid accumulation activity [3]	lipid accumulation (Oil Red O staining) [3]	adipogenesis (Oil Red O and AdipoQ, Fabp4, Pparγ expression) [3]	inhibition of TNFα-induced lipolysis (glycerol release) [4]	other results
	CC(C)=CCc1cc(/C=C/C(=O)O)cc(CC=C(C)C)c1O [Artepillin C]	enhance adipogenesis					PPARγ activation [2]: activate
detected	CC(C)=CCc1cc(/C=C/C(=O)O)cc(C/C=C(\C)CO)c1O [Compound 2, capillartemisin A]		active in a dose-dependent manner	enhanced lipid accumulation	promote adipogenesis	not able to significantly mitigate	
did not detect	CC(C)=CCc1cc(/C=C/C(=O)O)cc(C/C=C(/C)CO)c1O [Compound 3, capillartemisin B]		best activity over the tested dose range	enhanced lipid accumulation	promote adipogenesis	not able to significantly mitigate	
	O=C(/C=C/c1ccc(O)c(O)c1)O[C@@H]1CC(O)(C(=O)O)C[C@@H](OC(=O)/C=C/c2ccc(O)c(O)c2)C1O (stereo partly drawn) [DEQA, 3,5-dicaffeoyl-epi-quinic acid]	do not promote adipogenesis					caspase 1 activity [6]: reduce
	CN(CCOc1ccc(CC2SC(=O)NC2=O)cc1)c1ccccn1 (stereo not drawn) [rosiglitazone]						hematocrit [7]: decreases hematocrit by as much as three percentage points
